The values that follow are results of earlier work, collected in patent US20090022826A1, “Multi-step method of pain and/or inflammation treatment” (priority 2007, published 2009).

With `CCOCCOCCO` [Ethoxydiglycol, diethylene glycol monoethyl ether], where the note is “alcohol”, the solubility in alcohol entry was “soluble”. The “solubility in mineral oil” value (mineral oil) is on record as “insoluble”. For the same compound, the “solubility in vegetable oil” value (vegetable oil) is “partially soluble”. Besides, where the note is “water”, the solubility in water result was “soluble”.
